Measurements taken from article PMC9411606, “Control cell migration by engineering integrin ligand assembly” (Nature Communications, 2022).

Columns and labels:
integrin α3β1 = experiment: MicroScale Thermophoresis integrin binding; set-up: species or system human; details: MST, n = 3
Excerpt: The interaction between integrins and peptide ligands in PBS was quantified by a Monolith® NT.115Pico (NanoTemper Technology, Germany) using MO. Control 1.6 software. Recombinant human integrin proteins, including alpha-3/ beta-1, alpha-5/beta-1, and alpha-6/ beta-1, were purchased from R&D Systems (USA). Recombinant integrin proteins were labeled by Monolith^TM Protein Labeling Kit RED-NHS (NanoTemper Technology) following the instruction provided by the manufacturer. The fluorescence-labeled integrin solution was mixed with peptides solution in 15 concentration gradients at a 1:1 ratio. The Monolith^TM NT.115 MST Premium Coated Capillaries (NanoTemper Technology) were applied to draw the mixed solution with the order of declining ligand concentration. Pretests were performed to ensure the protein concentration and fluorescent intensities in each tube were equal. Following that, quantitative binding affinity was measured three times.

HuH-7 cells = experiment: MTT assay, HuH-7 cell viability; assay type: cell-based, human; details: HuH-7, 10-200 µM, 24, 48, 72 hr
Procedure: Huh-7 cells were seeded in 96-well plates at a density of 5 × 10^3 cells/ well. The cells were allowed to adhere by incubating at 37 °C with 5% CO2 for 12 hr. 100 μL of Cultured medium containing 10% FBS and the desired concentration of peptide replaced to each well and the cells were then incubated with the peptide solution for another 24, 48, or 72 hr. After the desired time of incubation, 10 μL of MTT (12 mM, Invitrogen) solution at a concentration of 5 mg/mL was added to each well and incubated at 37 °C for another 4 hr. The reduction reaction was terminated by adding 100 μL of 10% of SDS solution (in Milli-Q) and incubated for 12 hr to dissolve the formazan crystals formed in the cells. A Nivo multimode plate reader (PerkinElmer) was used to measure the optical density at the 570 nm wavelength of each well. All experiments were conducted in triplicate, and the results were calculated as mean ± standard deviation and presented as cell viability.

[1] = system: integrin α3β1 expressing cells (HuH-7, HeLa, HepG2, A549, MKN1, and U-87 MG); experiment: Wound healing assay, integrin α3β1 expressing cells; assay type: cell-based, human; details: 10-200 µM
Procedure: (§1) Healthy cells were seeded in 96-well Image Lock plates (Essen Bioscience, UK). Each well contained 2 ×10^4 to 5 × 10^4 cells in 100 μL of complete cell culture medium. Cell monolayer with approximately 90% confluence formed after 12 hr and cells were next starved in serum-free culture medium for 12 hrs. Homogenous scratch wounds with a width of about 700 μm were made by an Essen BioScienceWound Maker. The detached cells were washed with Dulbecco’s Buffered Saline (DPBS, Gibco) 3 times. Cells were incubated with 100 μL of culture medium containing 0.5 % FBS and desired concentration of each peptide. Wound closure was monitored by an IncucyteS3 (Essen Bioscience) with a 10x objective. Images for each well were acquired every 2 hr to 8 hr for 2 days or until the wounds were closed completely. The wound healing rate was quantified by Incucyte Scratch Wound Analysis Module (Essen Bioscience). The experiments were repeated at least 3 times, and the results were presented as mean ± standard deviation of at least 3 independent experiments.

[2] = system: MCF-7 and Ect1/E6E7 cells; experiment: Wound healing assay, cells lacking integrin α3β1; assay type: cell-based, human; details: 10-200 µM, 48 hr
Procedure: as §1

[3] = system: paxillin Y118 phosphorylation in HuH-7 cells; experiment: Western blotting Paxillin / pY118 Paxillin; assay type: cell-based, human
Procedure: Protein lysates were prepared in ice-cold RIPA lysis, and extraction buffer (Thermo Scientific) supplemented with 1% Halt Protease Inhibitor (Thermo Scientific) and 1% Halt Phosphatase inhibitor (Thermo Scientific). Cells were scraped off from the culture surface using a cold plastic cell scraper, and the cell suspension was then gently transferred into a pre-cooled microcentrifuge tube and maintained on ice for 30 min with constant agitation before centrifuged at 21000 × g for 20 min. The supernatant was then transferred to a new tube, and the protein concentration of the supernatant was quantified according to the Pierce™ BCA Protein Assay Kit (Thermo Scientific). The rest of the supernatant was mixed with 4x laemmli sample buffer (Bio-Rad) in a 1:3 ratio and boiled at 100 °C for 10 min. Lysates can be aliquoted and stored at −80 °C freezer. When running the gel, 30 μg of protein was loaded into each well of the SDS-PAGE gels, along with a molecular weight marker (Bio-Rad). The gel was run for 2 hr at constantly 100 V to separate the proteins based on the molecular weight. The proteins were then transferred from the SDS-gel to a PVDF membrane (Bio-Rad) using a Transfer-blot turbo system (Bio-Rad). Once the membranes were blocked with Blocking One P solution (Nacalai) for 20 min at room temperature with gentle shaking, they were probed with antibodies against GAPDH (6C5, ab8245, Abcam, 1:1000), integrin beta 1 (12G10, ab30394, Abcam, 1:100), integrin alpha 3 (ASC-1, MA5-28565, Invitrogen, 1:100), integrin alpha 6 (EPR18124, ab191551, Abcam, 1:200), Phospho-Myosin Light Chain 2 (Thr18/Ser19)(pMLC, #3647, Cell Signaling Technology, 1:200) diluted in Tris-Buffered Saline containing 0.1% Tween-20 and 5% Blocking one P solution and the membrane was incubated in the dark for overnight at 4 °C with gentle shaking. The unbounded antibodies were washed out with tris-buffered saline (TBS) containing 0.1% Tween-20 (TBS- T) for 10 min for at least 6 times. […] Protein bands were quantified by measuring peak areas using ImageJ. […]

[4] = relative to Ctrl = 1, 12 hr, representative blot

Sequence: FFFIKLLI [assembling ligand: FFF coupled to the N-terminus of IKLLI; self-assembles into nanofilaments]
- integrin-binding affinity (integrin α3β1; PBS, integrin 2 nM, in words): highest binding affinity
- integrin selectivity (integrin α3β1; integrin α3β1 vs α5β1 and α6β1, integrin 2 nM): selectively targeted integrin α3β1
- cytotoxicity (HuH-7 cells): without inducing cytotoxicity
- effect on cell migration [1]: suppression effect
- effect on cell migration [2]: negligible influence
- paxillin Y118 phosphorylation ([3]; HuH-7, 12 hr, n = 9): reduction
- Paxillin band [3, 4]: 1.01
- pY118Paxillin band [3, 4]: 0.34
